Experimental data as given in patent US20180346446A1, “IRE1 SMALL MOLECULE INHIBITORS” (QUENTIS THERAPEUTICS, INC., priority 2017, published 2018).

Assays:
IRE1a [1] = biological target: T1, IRE1a (Homo sapiens, UniProt O75460); experiment: IRE1a Endoribonuclease Nanoluciferase Assay (XBP1 luciferase reporter in 293T cells); type: cell-based; conditions: 293T cells transfected with XBP1 luciferase reporter, ER stressors +/- inhibitors
Experimental: Compounds disclosed herein were assessed for disruption of IRE1 signaling using a IRE1a Endoribonuclease Nanoluciferase Assay. Briefly, 2.5×10^6 293T cells were seeded in a 10 cm^2 tissue culture plate. About 24 hours later, the cells were transfected with Effectene. In a 15 mL Tube, the following was added: 2 ug XBP1 luciferase reporter plasmid (PGK-Luc2-P2A-XBP1u-Nanoluciferase-PEST); 300 ul EC buffer; and 16 ul Enhancer, followed by incubation at room temp for 5 minutes. Next, 60 ul Effectene (Qiagen 301427) was added, followed by incubation at room temperature for 10 minutes. 2.6 mL cDMEM media was added. Old media was aspirated from the cells, followed by addition of 7 mL fresh media. Full transfection mixture was added dropwise to cells. Cells were incubated for 6 hours, followed by trypsinization, centrifugation and resuspension in 11 mL media. 100 uL of cells were plated per a well in a 96 well plate. A day later, ER stressors of choice +/− inhibitors were added. To harvest, media was aspirated from cells completely, then 50 uL 1× passive lysis buffer (Promega: E1941) was added per well and put on shaker (300 rpm) for 30 minutes at room temperature. Cells were centrifuged, and 15 uL sample per well was added to a new, opaque white 384 well plate (Corning 3570). 15 uL OneGlo (nanoluciferase kit, Promega N1630) was added. Plates were spun down, placed on shaker (300 rpm) for 10 minutes. Plates were read on luminometer, 1000 ms integration time per well. 15 uL Stop and Glo (nanoluciferase kit) was added. Plates were spun down, placed on shaker (300 rpm) for 10 minutes. Plates were read on luminometer, 1000 ms second integration time per well. Recordings are provided below in Table 4.

IRE1a [2] = biological target: T1, IRE1a; experiment: In vitro FRET assay (XBP1 RNA probe cleavage by IRE1a); type: biochemical; set-up: purchased SignalChem; conditions: 2 nM IRE1a protein
Experimental: In vitro FRET assay was performed to evaluate the ability of select compounds to inhibit IRE1, the results of which are summarized in Table 3. To perform the in vitro FRET assay, 1× complete assay buffer (CAB; […], 50 mM sodium citrate pH 7.15, ImM magnesium acetate, 0.02% tween 20) was used to dilute SignalChem IRE1a protein to a final concentration of 2 nM. Selected compounds were serially diluted with DMSO in a non-binding black 384-well plate for a total of 15 ul in each well. 2 ul of the serially diluted compound or DMSO control were then added to new wells containing 98 ul of 1×CAB, for a total volume of 100 ul, 10 ul of which were then transferred to wells of a new plate. 5 ul of the diluted IRE1a was then added to each well. 5 ul of a […] XBP1 RNA probe was then added to each well. Fluorescence was then read over 30 minutes in kinetic mode (485/515 nm).
Two RNA probes were used, XBP1 wildtype (SEQ ID NO: 2) which is able to be spliced by active IRE1a or XBP1 mutant (SEQ ID NO: 3) which is unable to be spliced. Each probe contained a 5′ 6-FAM modification and a 3′ IOWA Black FQ modification. […]

T1 sequence (O75460 19-977): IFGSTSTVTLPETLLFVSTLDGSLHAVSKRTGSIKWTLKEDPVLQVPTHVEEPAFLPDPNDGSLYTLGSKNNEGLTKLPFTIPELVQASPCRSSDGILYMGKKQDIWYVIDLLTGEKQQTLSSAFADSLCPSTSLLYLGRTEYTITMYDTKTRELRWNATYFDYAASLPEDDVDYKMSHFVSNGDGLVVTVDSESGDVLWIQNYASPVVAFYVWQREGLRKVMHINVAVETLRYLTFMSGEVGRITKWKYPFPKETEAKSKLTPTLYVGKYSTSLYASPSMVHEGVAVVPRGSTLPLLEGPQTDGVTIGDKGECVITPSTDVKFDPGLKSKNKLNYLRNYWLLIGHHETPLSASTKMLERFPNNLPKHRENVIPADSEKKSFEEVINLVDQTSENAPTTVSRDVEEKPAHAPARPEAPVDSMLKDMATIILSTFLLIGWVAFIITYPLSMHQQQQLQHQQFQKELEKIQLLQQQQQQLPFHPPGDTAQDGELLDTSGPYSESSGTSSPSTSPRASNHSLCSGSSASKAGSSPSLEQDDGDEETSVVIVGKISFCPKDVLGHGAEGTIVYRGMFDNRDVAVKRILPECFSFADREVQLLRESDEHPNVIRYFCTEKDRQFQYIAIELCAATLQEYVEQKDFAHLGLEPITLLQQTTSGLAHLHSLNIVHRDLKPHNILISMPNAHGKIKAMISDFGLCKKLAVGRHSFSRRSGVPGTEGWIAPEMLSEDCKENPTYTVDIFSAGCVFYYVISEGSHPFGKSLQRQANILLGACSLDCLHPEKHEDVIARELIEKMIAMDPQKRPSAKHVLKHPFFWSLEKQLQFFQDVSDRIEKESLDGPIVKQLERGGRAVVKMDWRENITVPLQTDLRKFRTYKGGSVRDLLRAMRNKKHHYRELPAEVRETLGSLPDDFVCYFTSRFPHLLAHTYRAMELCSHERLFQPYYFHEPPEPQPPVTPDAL

Compound	EC50 (IRE1a [1])	IC50 (IRE1a [2])
N[C@H]1CC[C@H](Nc2ncc3cc(-c4ccc(NS(=O)(=O)c5ccccc5Cl)cc4)ccc3n2)CC1 [26; Formic Acid]	≤ 5 nM	≤ 5 nM
CCc1cc(-c2cc(NS(=O)(=O)c3ccccc3Cl)no2)cc2cnc(N[C@H]3CC[C@H](N)CC3)nc12 [44; Formic Acid]	≤ 5 nM	≤ 5 nM
CCCc1cc(-c2cc(NS(=O)(=O)c3ccccc3Cl)nn2C)cc2cnc(N[C@H]3CC[C@H](N)CC3)nc12 [47; Formic Acid]	5 to 50 nM	≤ 5 nM
N[C@H]1CC[C@H](Nc2ncc3cc(-c4ccc(NS(=O)(=O)c5ccccc5Cl)cc4F)ccc3n2)CC1 [48; Formic Acid]	5 to 50 nM	≤ 5 nM
N[C@H]1CC[C@H](Nc2ncc3cc(-c4ncc(NS(=O)(=O)c5ccccc5Cl)cc4F)ccc3n2)CC1 [51; Formic Acid]	50 to 100 nM	≤ 5 nM
N[C@H]1CC[C@H](Nc2ncc3cc(-c4cnc(NS(=O)(=O)c5ccccc5Cl)c(F)c4)ccc3n2)CC1 [54; Formic Acid]	5 to 50 nM	≤ 5 nM
N[C@H]1CC[C@H](Nc2ncc3cc(-c4ccc(NS(=O)(=O)c5ccccc5Cl)c(F)c4F)ccc3n2)CC1 [56; Formic Acid]	≤ 5 nM	≤ 5 nM
N[C@H]1CC[C@H](Nc2cc3ccc(-c4ccc(NS(=O)(=O)c5ccccc5Cl)c(F)c4)cc3cn2)CC1 [57; Formic Acid]	≤ 5 nM	≤ 5 nM
CCc1cc(-c2ccc(NS(=O)(=O)c3ccccc3Cl)c(F)c2)cc2cnc(N[C@H]3CC[C@H](NC(=O)[C@@H](N)C(C)C)CC3)nc12 [58; Formic Acid]	≤ 5 nM	5 to 50 nM
CCc1cc(-c2ccc(NS(=O)(=O)c3ccccc3Cl)c(F)c2)cc2cnc(N[C@H]3CC[C@H](NC(C)=O)CC3)nc12 [59; Formic Acid]	50 to 100 nM	5 to 50 nM
CCc1cc(-c2ccc(NS(=O)(=O)c3ccccc3Cl)c(F)c2)cc2cnc(N[C@H]3CC[C@H](NC)CC3)nc12 [60; Formic Acid]	≤ 5 nM	≤ 5 nM
N[C@H]1CC[C@H](Nc2ncc3cc(-c4c(F)cc(NS(=O)(=O)c5ccccc5Cl)cc4F)ccc3n2)CC1 [62; Formic Acid]	5 to 50 nM	≤ 5 nM
CCc1cc(-c2cc(OC)c(NS(=O)(=O)c3ccccc3Cl)nn2)cc2cnc(N[C@H]3CC[C@H](N)CC3)nc12 [66; Formic Acid]	50 to 100 nM	≤ 5 nM
Cc1nc(NS(=O)(=O)c2ccccc2Cl)ncc1-c1ccc2nc(N[C@H]3CC[C@H](N)CC3)ncc2c1 [68; Formic Acid]	50 to 100 nM	≤ 5 nM
CCc1cc(-c2ccc(NS(=O)(=O)c3ccccc3Cl)c(F)c2)cc2cnc(N[C@@H]3CC[C@H](N)[C@H](C)C3)nc12 [70; Formic Acid]	≤ 5 nM	≤ 5 nM
CCc1cc(-c2ccc(NS(=O)(=O)c3ccccc3Cl)c(F)c2)cc2cnc(N[C@@H]3CCC[C@H](N)C3)nc12 [72; Formic Acid]	> 100 nM	≤ 5 nM
CCc1cc(-c2ccc(NS(=O)(=O)c3ccccc3Cl)c(F)c2)cc2cnc(N[C@H]3CCCNC3)nc12 [73; Formic Acid]	≤ 5 nM	≤ 5 nM
CCc1cc(-c2ccc(NS(=O)(=O)c3ccccc3Cl)c(F)c2)cc2cnc(N[C@@H]3CC[C@@H](N)[C@H](C)C3)nc12 [74; Formic Acid]	≤ 5 nM	≤ 5 nM
NC1CCCC(Nc2ncc3cc(-c4ccc(NS(=O)(=O)c5ccccc5Cl)c(F)c4)ccc3n2)C1 (stereo not shown) [75; Formic Acid]	> 100 nM	≤ 5 nM

Compound	EC50 (IRE1a [1])	IC50 (IRE1a [2])
O=S(=O)(Nc1ccc(-c2ccc3nc(N[C@H]4CCCNC4)ncc3c2)cc1F)c1ccccc1Cl [76; Formic Acid]	5 to 50 nM	≤ 5 nM
N[C@@H]1CC[C@@H](Nc2ncc3cc(-c4ccc(NS(=O)(=O)c5ccccc5Cl)c(F)c4)ccc3n2)C1 [77; Formic Acid]	5 to 50 nM	≤ 5 nM
CCc1cc(-c2ccc(NS(=O)(=O)c3ccccc3Cl)c(F)c2)cc2cnc(N[C@@H]3CC[C@@H](N)C3)nc12 [78; Formic Acid]	≤ 5 nM	≤ 5 nM
CCc1cc(-c2ccc(NS(=O)(=O)c3ccccc3Cl)c(F)c2)cc2cnc(N[C@@H]3CC[C@H](N)C3)nc12 [79; Formic Acid]	5 to 50 nM	≤ 5 nM
N[C@H]1CC[C@@H](Nc2ncc3cc(-c4ccc(NS(=O)(=O)c5ccccc5Cl)c(F)c4)ccc3n2)C1 [80; Formic Acid]	> 100 nM	≤ 5 nM
NC12CCC(Nc3ncc4cc(-c5ccc(NS(=O)(=O)c6ccccc6Cl)c(F)c5)ccc4n3)(CC1)CC2 [81; Formic Acid]	≤ 5 nM	≤ 5 nM
CCc1cc(-c2ccc(NS(=O)(=O)c3ccccc3Cl)c(F)c2)cc2cnc(N[C@H]3CC4C[C@H](N)CC4C3)nc12 (stereo partly shown) [82; Formic Acid]	5 to 50 nM	≤ 5 nM
CCc1cc(-c2ccc(NS(=O)(=O)c3ccccc3Cl)c(F)c2)cc2cnc(N[C@H]3CC4C[C@@H](N)CC4C3)nc12 (stereo partly shown) [84; Formic Acid]	5 to 50 nM	≤ 5 nM
N[C@H]1CC2C[C@@H](Nc3ncc4cc(-c5ccc(NS(=O)(=O)c6ccccc6Cl)c(F)c5)ccc4n3)CC2C1 (stereo partly shown) [85; Formic Acid]	> 100 nM	≤ 5 nM
NC12CCC(Nc3ncc4cc(-c5ccc(NS(=O)(=O)c6ccccc6Cl)c(F)c5)ccc4n3)(CC1)C2 [86; Formic Acid]	50 to 100 nM	≤ 5 nM
CCc1cc(-c2ccc(NS(=O)(=O)c3ccccc3Cl)c(F)c2)cc2cnc(NC34CCC(N)(CC3)CC4)nc12 [87; Formic Acid]	≤ 5 nM	≤ 5 nM
CCc1cc(-c2ccc(NS(=O)(=O)c3ccccc3Cl)c(F)c2)cc2cnc(N[C@H]3CC[C@H](N4CCCC4)CC3)nc12 [88; Formic Acid]	≤ 5 nM	≤ 5 nM
N[C@H]1CC[C@H](Nc2ncc3cc(-c4nnc(NS(=O)(=O)c5ccccc5Cl)s4)ccc3n2)CC1 [89; Formic Acid]	> 100 nM	≤ 5 nM
Cc1cc2nc(N[C@H]3CC[C@H](N)CC3)ncc2cc1-c1ccc(NS(=O)(=O)c2ccccc2Cl)c(F)c1 [90; Formic Acid]	5 to 50 nM	≤ 5 nM
CCc1cc(-c2cnc(NS(=O)(=O)c3ccccc3Cl)cc2OC)cc2cnc(N[C@H]3CC[C@H](N)CC3)nc12 [92; Formic Acid]	> 100 nM	≤ 5 nM
CCc1cc(-c2ncc(NS(=O)(=O)c3ccccc3Cl)cc2OC)cc2cnc(N[C@H]3CC[C@H](N)CC3)nc12 [93; Formic Acid]	≤ 5 nM	≤ 5 nM
CCc1cc(-c2ncc(NS(=O)(=O)c3ccccc3Cl)nc2C)cc2cnc(N[C@H]3CC[C@H](N)CC3)nc12 [94; Formic Acid]	≤ 5 nM	≤ 5 nM
CCc1cc(-c2ncc(NS(=O)(=O)c3ccccc3Cl)nc2OC)cc2cnc(N[C@H]3CC[C@H](N)CC3)nc12 [98; Formic Acid]	≤ 5 nM	≤ 5 nM
CCc1cc(-c2cc(CC)c3nc(N[C@H]4CC[C@H](N)CC4)ncc3c2)nnc1NS(=O)(=O)c1ccccc1Cl [100; Formic Acid]	50 to 100 nM	≤ 5 nM
